Source: ChEMBL document CHEMBL4706652, “Synthesis of 4-(3-oxo-3-phenylpropyl)morpholin-4-ium chloride analogues and their inhibitory activities of nitric oxide production in lipopolysaccharide-induced BV2 cells” (Bioorg Med Chem Lett, 2021)
Where a name gives a salt, the structure may show the parent alone.

How the values were obtained:
[1] = Inhibition of LPS-induced nitric oxide production in […] BV-2 cells at 20 uM measured after 24 hrs by Griess reagent assay relative to control; assay type: functional, Mus musculus; settings: for inhibition at 20 µM: BV-2, 24 h
[2] = Cytotoxicity against LPS-induced […] BV-2 cells assessed as cell viability at 20 uM measured after 24 hrs by MTT assay relative to control; assay type: cell-based; settings: for viability at 24 h, 20 µM: LPS-induced BV-2 cells, read-out: Activity
[3] = Cytotoxicity against LPS-induced […] BV-2 cells assessed as cell viability at 12.5 to 50 uM measured after 24 hrs by MTT assay; assay type: cell-based; settings: bv-2, 24 h, dose 12.5-50 µM
[4] = (§1) Inhibition of LPS-induced nitric oxide production in […] BV-2 cells measured after 24 hrs by Griess reagent assay; assay type: functional, cell-based; settings: BV-2, 24 h
[5] = Inhibition of LPS-induced nitric oxide production in […] BV-2 cells at 12.5 to 50 uM measured after 24 hrs by Griess reagent assay relative to control; assay type: functional; settings: dose 12.5-50 µM
[6] = cells; settings: Homo sapiens, BV-2, 24 h, read-out: INH
Description: Inhibition of LPS-induced nitric oxide production in human BV-2 cells at 10 uM measured after 24 hrs by Griess reagent assay relative to control

[7] = test system: BV-2; test: as §1; assay type: functional, cell-based
[8] = test system: BV-2; test: Inhibition of LPS-induced nitric oxide production in […] BV-2 cells assessed as decrease in iNOS protein expression pretreated with LPS for 1 hr and measured after 18 hrs by immunoblot analysis; assay type: functional, cell-based; settings: dose 2-20 µM, time 19.0 hrs
[9] = test system: BV-2; test: Inhibition of LPS-induced nitric oxide production in […] BV-2 cells assessed as decrease in iNOS mRNA expression pretreated with LPS for 1 hr and measured after 6 hrs by RT-PCR analysis; assay type: functional, cell-based; settings: dose 2-20 µM, time 7.0 hrs

| Compound | inhibition at 20 µM [1] | viability at 24 h, 20 µM [2] | other results |
| --- | --- | --- | --- |
| Cc1ccc(C(=O)CCN2CCOCC2)cc1 | 36% | 100% |  |
| O=C(CCN1CCOCC1)c1ccc(F)cc1 | 35.2% | 95% |  |
| O=C(CN1CCOCC1)C(=O)c1ccccc1 | 19.2% | 100% |  |
| O=C(CCN1CCOCC1)c1cccc(C(F)(F)F)c1 | 44.6% | 100% |  |
| COc1ccc(C(=O)CCN2CCOCC2)cc1 | 33.3% | 100% |  |
| O=C(CCN1CCOCC1)c1ccccc1 | 31.8% | 99.8% |  |
| O=C(CCN1CCOCC1)c1ccc(Cl)cc1 | 40.3% | 100% |  |
| Cl.O=C(CCN1CCOCC1)c1ccccc1 |  |  | Activity [3]: Non-Toxic; inhibition (INH) [1]: 29.3%; Activity ([2]; bv-2, 24 h, 20 µM): 96.7%; IC50 [4]: > 50 µM; inhibition (INH) [5]: 49% |
| O=C(CCN1CCOCC1)c1ccc(Br)cc1 | 41.6% | 100% |  |
| O=C(CCN1CCOCC1)c1ccc(I)cc1 | 41.6% | 89.4% |  |
| Nc1ccc(C(=O)CCN2CCOCC2)cc1 | 25.2% | 100% |  |
| O=C(CCN1CCOCC1)c1ccc(C(F)(F)F)cc1 | 50.3% | 96.1% |  |
| CNCCC(Oc1ccc(C(F)(F)F)cc1)c1ccccc1 (centres undefined) [FLUOXETINE HYDROCHLORIDE] |  |  | inhibition at 10 µM [6]: 31.2% |
| O=C(CCN1CCOCC1)c1ccc([N+](=O)[O-])cc1 | 73.1% | 98.3% |  |
| O=C(CC(=O)N1CCOCC1)c1ccccc1 | 20.1% | 99.7% |  |
| O=C(CCN1CCOCC1)c1ccc(O)cc1 | 26.5% | 99% |  |
| O=C(Cc1ccccc1)CN1CCOCC1 | 17.4% | 100% |  |
| CN(C)c1ccc(C(=O)CCN2CCOCC2)cc1 | 32.8% | 100% |  |
| O=C(CCN1CCOCC1)c1ccccc1C(F)(F)F | 78.3% | 100% | inhibition [7]: Dose-dependent effect; IC50 [4]: 8.6 µM; inhibition [8]: Dose-dependent effect; inhibition [9]: Dose-dependent effect |
